# According to patent US20210269434A1, “TRICYCLIC COMPOUNDS AS INHIBITORS OF KRAS” (Incyte Corporation, priority 2020, published 2021):
# What was measured:
# [1] = biological target: KRAS G12C (Homo sapiens, UniProt P01116, G12C); test: GDP-GTP exchange assay (KRAS_G12C exchange); assay type: biochemical; details: bodipy-GDP loaded KRAS G12C 2.5 nM, SOS1 150 nM, GppNHp; 2 hours pre-incubation, 2 hours reaction; read-out: G12C_exchange
# Method in brief: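 Fluorescence exchange of bodipy-GDP for GppNHp, SOS1-driven, read at 485/520 nm; IC50 from four-parameter variable-slope fit. Both mutants used 2.5 nM final labelled protein and a 2 h compound pre-incubation. G12C reaction had 500 uM GppNHp and 150 nM SOS1 for 2 h; G12D ran 4 h.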
# [2] = test system: MIA PaCa-2 (KRAS G12C) cells; test: Cellular pERK HTRF assay (KRAS_G12C pERK); assay type: cell-based, human; details: Homo sapiens, MIA PaCa-2, 4 hours incubation, read-out: G12C_pERK
# Method in brief: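 MIA PaCa-2 cells plated overnight, then exposed to compound for 4 h at 37 °C (G12C compounds). Phospho-ERK1/2 measured in lysates by HTRF (665/620 nm) after overnight antibody incubation; IC50 from percent inhibition versus log concentration.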
# Sequence of KRAS G12C (P01116 1-188 isoform P01116-2 G12C): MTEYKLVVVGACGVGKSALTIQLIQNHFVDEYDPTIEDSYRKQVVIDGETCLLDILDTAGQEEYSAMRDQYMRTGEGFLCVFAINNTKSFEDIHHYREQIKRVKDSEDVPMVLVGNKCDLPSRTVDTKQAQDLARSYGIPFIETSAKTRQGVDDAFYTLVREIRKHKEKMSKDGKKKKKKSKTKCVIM
IC50 [1] [nM],IC50 [2] [nM],Structure (SMILES)
≤ 100,≤ 100,"CC#CC(=O)N1CC[C@H](n2cnc3c(N4CC(N(C)C)C4)nc4c(F)c(-c5c(C)c(Cl)cc6[nH]ncc56)c(Cl)cc4c32)C[C@H]1CC#N [Example 177a, 2-((2S,4S)-1-(but-2-ynoyl)-4-(8-chloro-7-(6-chloro-5-methyl-1H-indazol-4-yl)-4-(3-(dimethylamino)azetidin-1-yl)-6-fluoro-1H-imidazo[4,5-c]quinolin-1-yl)piperidin-2-yl)acetonitrile]"
≤ 100,≤ 100,"C=CC(=O)N1CC[C@H](n2nnc3c(N4CC(C)(N(C)C)C4)nc4c(F)c(-c5c(C)c(F)cc6[nH]ncc56)c(C)cc4c32)C[C@H]1CC#N [Example 202a, 2-((2S,4S)-1-acryloyl-4-(4-(3-(dimethylamino)-3-methylazetidin-1-yl)-6-fluoro-7-(6-fluoro-5-methyl-1H-indazol-4-yl)-8-methyl-1H-[1,2,3]triazolo[4,5-c]quinolin-1-yl)piperidin-2-yl)acetonitrile]"
≤ 100,≤ 100,"C=CC(=O)N1CC[C@H](n2cnc3c(O[C@@H](C)CN(C)C)nc4c(F)c(-c5ccc(F)cc5)c(Cl)cc4c32)C[C@H]1CC#N [Example 122, 2-((2S,4S)-1-acryloyl-4-(8-chloro-4-(((S)-1-(dimethyl-amino)propan-2-yl)oxy)-6-fluoro-7-(4-fluorophenyl)-1H-imidazo[4,5-c]quinolin-1-yl)piperidin-2-yl)acetonitrile]"
≤ 100,≤ 100,"CC#CC(=O)N1CC[C@H](n2nnc3c(N4CCCCC4=O)nc4c(F)c(-c5cccc(Cl)c5C)c(Cl)cc4c32)C[C@H]1CC#N [Example 93, 2-((2S,4S)-1-(but-2-ynoyl)-4-(8-chloro-7-(3-chloro-2-methylphenyl)-6-fluoro-4-(2-oxopiperidin-1-yl)-1H-[1,2,3]triazolo[4,5-c]quinolin-1-yl)piperidin-2-yl)acetonitrile]"
≤ 100,≤ 100,"C=CC(=O)N1CC[C@H](n2cnc3c(N4CC(N(C)C)C4)nc4c(F)c(-c5cccc(C)c5)c(Cl)cc4c32)C[C@H]1CC#N [Example 109, 2-((2S,4S)-1-acryloyl-4-(8-chloro-4-(3-(dimethylamino)-azetidin-1-yl)-6-fluoro-7-(m-tolyl)-1H-imidazo[4,5-c]quinolin-1-yl)piperidin-2-yl)acetonitrile]"
≤ 100,≤ 100,"Cc1cccc(-c2c(C)cc3c(nc(N4CCOCC4=O)c4nnn([C@H]5CCN(C(=O)/C=C/CF)[C@H](CC#N)C5)c43)c2F)c1Cl [Example 261, 2-((2S,4S)-4-(7-(2-chloro-3-methylphenyl)-6-fluoro-8-methyl-4-(3-oxomorpholino)-1H-[1,2,3]triazolo[4,5-c]quinolin-1-yl)-1-((E)-4-fluorobut-2-enoyl)piperidin-2-yl)acetonitrile]"
≤ 100,≤ 100,"Cc1cccc(-c2c(C(F)(F)F)cc3c(nc(N4CC(C)(N(C)C)C4)c4nnn([C@H]5CCN(C(=O)/C=C/CN(C)C)[C@H](CC#N)C5)c43)c2F)c1Cl [Example 237, 2-((2S,4S)-4-(7-(2-chloro-3-methylphenyl)-4-(3-(dimethylamino)-3-methylazetidin-1-yl)-6-fluoro-8-(trifluoromethyl)-1H-[1,2,3]triazolo[4,5-c]quinolin-1-yl)-1-((E)-4-(dimethylamino)but-2-enoyl)piperidin-2-yl)acetonitrile]"
≤ 100,≤ 100,"C=CC(=O)N1CCC(n2cnc3c(OC[C@@H]4CCCN4C)nc4c(F)c(-c5cccc6cccc(Cl)c56)c(Cl)cc4c32)C[C@H]1CC#N (single isomer, unassigned) [Example 215b]"
≤ 100,≤ 100,"C=CC(=O)N1CC[C@H](n2nnc3c(OC[C@@H]4CCCN4C)nc4c(Cl)c(-c5cccc(Cl)c5Cl)c(Cl)cc4c32)C[C@H]1CC#N [Example 285, 2-((2S,4S)-1-acryloyl-4-(6,8-dichloro-7-(2,3-dichlorophenyl)-4-(((S)-1-methylpyrrolidin-2-yl)methoxy)-1H-[1,2,3]triazolo[4,5-c]quinolin-1-yl)piperidin-2-yl)acetonitrile]"
≤ 100,≤ 100,"C=CC(=O)N1CCC(n2nnc3c(N4CC(C)(N(C)C)C4)nc4c(F)c(-c5cccc6cccc(Cl)c56)c(Cl)cc4c32)C[C@H]1CC#N (single isomer, unassigned) [Example 216a]"
≤ 100,≤ 100,"Cc1cc2c(nc(OC[C@@H]3CCCN3C)c3nnn([C@H]4CCN(C(=O)/C=C/C(F)F)[C@H](CC#N)C4)c32)c(F)c1-c1cccnc1C(F)(F)F (single isomer, unassigned) [Example 168a]"
≤ 100,≤ 100,"CC#CC(=O)N1CC[C@H](n2nnc3c(N4CC(N(C)C)C4)nc4c(Cl)c(-c5cccc6cccnc56)c(Cl)cc4c32)C[C@H]1CC#N (single isomer, unassigned) [Example 277a]"
≤ 100,≤ 100,"CC#CC(=O)N1CC[C@H](n2nnc3c(OC[C@@H]4CCCN4C)nc4c(F)c(-c5cccc(C#N)c5C)c(Cl)cc4c32)C[C@H]1CC#N [Example 96, 3-(1-((2S,4S)-1-(but-2-ynoyl)-2-(cyanomethyl)piperidin-4-yl)-8-chloro-6-fluoro-4-(((S)-1-methylpyrrolidin-2-yl)methoxy)-1H-[1,2,3]triazolo[4,5-c]quinolin-7-yl)-2-methylbenzonitrile]"
≤ 100,≤ 100,"CC#CC(=O)N1CC[C@H](n2nnc3c(N4CC(C)(N(C)C)C4)nc4c(F)c(-c5cccc(C)c5OC)c(C(F)(F)F)cc4c32)C[C@H]1CC#N (single isomer, unassigned) [Example 245a]"
≤ 100,≤ 100,"C=CC(=O)N1CC[C@H](n2cnc3c(N4CC(N(C)C)C4)nc4c(F)c(-c5cc(O)ccc5F)c(Cl)cc4c32)C[C@H]1CC#N [Example 55, 2-((2S,4S)-1-acryloyl-4-(8-chloro-4-(3-(dimethylamino)azetidin-1-yl)-6-fluoro-7-(2-fluoro-5-hydroxyphenyl)-1H-imidazo[4,5-c]quinolin-1-yl)piperidin-2-yl)acetonitrile]"
≤ 100,≤ 100,"Cc1cccc(-c2c(C)cc3c(nc(N4CC(N(C)C)C4)c4nnn([C@H]5CCN(C(=O)/C=C/CF)[C@H](CC#N)C5)c43)c2F)c1C [Example 206, 2-((2S,4S)-4-(4-(3-(dimethylamino)azetidin-1-yl)-7-(2,3-dimethylphenyl)-6-fluoro-8-methyl-1H-[1,2,3]triazolo[4,5-c]quinolin-1-yl)-1-((E)-4-fluorobut-2-enoyl)piperidin-2-yl)acetonitrile]"
≤ 100,≤ 100,"Cc1c(Cl)cc2[nH]ncc2c1-c1c(Cl)cc2c(nc(N3CC(N(C)C)C3)c3nnn([C@H]4CCN(C(=O)/C=C/C(F)F)[C@H](CC#N)C4)c32)c1F [Example 201a, 2-((2S,4S)-4-(8-chloro-7-(6-chloro-5-methyl-1H-indazol-4-yl)-4-(3-(dimethylamino)azetidin-1-yl)-6-fluoro-1H-[1,2,3]triazolo[4,5-c]quinolin-1-yl)-1-((E)-4,4-difluorobut-2-enoyl)piperidin-2-yl)acetonitrile]"
≤ 100,≤ 100,"Cc1cc2c(nc(N3CC(C)(N(C)C)C3)c3nnn([C@H]4CCN(C(=O)/C=C/CN(C)C)[C@H](CC#N)C4)c32)c(F)c1-c1cccc(Cl)c1C [Example 105, 2-((2S,4S)-4-(7-(3-chloro-2-methylphenyl)-4-(3-(dimethylamino)-3-methylazetidin-1-yl)-6-fluoro-8-methyl-1H-[1,2,3]triazolo[4,5-c]quinolin-1-yl)-1-((E)-4-(dimethylamino)but-2-enoyl)piperidin-2-yl)acetonitrile]"
≤ 100,≤ 100,"CC#CC(=O)N1CCC(n2cnc3c(N4CC(C)(N(C)C)C4)nc4c(F)c(-c5cccc6cccc(Cl)c56)c(Cl)cc4c32)C[C@H]1CC#N (single isomer, unassigned) [Example 213b]"
≤ 100,≤ 100,"C=CC(=O)N1CC[C@H](n2cnc3c(N4CC(N(C)C)C4)nc4c(F)c(-c5cccc6cccc(C)c56)c(Cl)cc4c32)C[C@H]1CC#N [Example 68, 2-((2S,4S)-1-acryloyl-4-(8-chloro-4-(3-(dimethylamino)azetidin-1-yl)-6-fluoro-7-(8-methylnaphthalen-1-yl)-1H-imidazo[4,5-c]quinolin-1-yl)piperidin-2-yl)acetonitrile]"
≤ 100,≤ 100,"CC#CC(=O)N1CC[C@H](n2nnc3c(OC[C@@H]4CCCN4C)nc4c(Cl)c(-c5cccc(Cl)c5Cl)c(Cl)cc4c32)C[C@H]1CC#N [Example 278, 2-((2S,4S)-1-(but-2-ynoyl)-4-(6,8-dichloro-7-(2,3-dichlorophenyl)-4-(((S)-1-methylpyrrolidin-2-yl)methoxy)-1H-[1,2,3]triazolo[4,5-c]quinolin-1-yl)piperidin-2-yl)acetonitrile]"
≤ 100,≤ 100,"C=CC(=O)N1CC[C@H](n2nnc3c(N4CC(C)(N(C)C)C4)nc4c(F)c(-c5ccc(F)cc5)c(Cl)cc4c32)C[C@H]1CC#N [Example 126, 2-((2S,4S)-1-acryloyl-4-(8-chloro-4-(3-(dimethylamino)-3-methylazetidin-1-yl)-6-fluoro-7-(4-fluorophenyl)-1H-[1,2,3]triazolo[4,5-c]quinolin-1-yl)piperidin-2-yl)acetonitrile]"
